Results: patent US20050003029A1, “UTILIZATION OF RUTINS AND AESCINS IN THE TREATMENT OF OCULAR CIRCULATORY DISTURBANCES” (priority 2001, published 2005)

Tested on: retinal hemorrhages and vascular leakages
Experiment: Efficacy case examples: oral therapy of patients with retinal hemorrhages and vascular leakages, detected by fluorescence angiography
Assay type: in vivo, human
Details: orally daily
Text: (§1) patient with severe visual impairment.
2 relatively small intraretinal hemorrhages on the retina existed, further 8 vascular leakages stainable with fluorescein sodium and detectable using fluorescence angiography. The finding existed for 4 months with the tendency to worsen. The basic disease present was a generalized sclerotic vascular complaint.
patient with suddenly commencing visual impairment, which had existed for 5 months.
A relatively large intraretinal strip hemorrhage existed as a result of a branch vein thrombosis, further 3 vascular leakages detectable by fluorescence angiography. The basic disease present was latent diabetes mellitus.
as §1
1 relatively large and 2 smaller retinal hemorrhages existed; further three vascular leakages which were detectable using fluorescence angiography. The basic disease was a generalized vascular complaint. The finding existed for 5 months with the tendency for increasing worsening.
as §1
A large subretinal hemorrhage existed, further 2 vascular leakages detectable by fluorescence angiography. A risk factor to be seen was the taking for years of a hormonal anticontraceptive.

In the case of CC1OC(OCC2OC(Oc3c(-c4ccc(OCCO)c(OCCO)c4)oc4cc(OCCO)cc(O)c4c3=O)C(O)C(O)C2O)C(O)C(O)C1O (stereo not drawn) [troxerutin, 3′,4′,7-tris-O-(β-hydroxyethyl)rutin], the leakages sealed (Case example 1, after 2 weeks) is reported as 1 leakages, the “leakages sealed (total)” value (Case example 1, after 4 weeks) is reported as 3 leakages and the “intraretinal hemorrhages (status)” value (Case example 1, four-week therapy, 2 relatively small hemorrhages) is reported as “unchanged”. The “vascular leakages (status)” value (Case example 2, three-week therapy, 3 leakages before) was “unchanged”, the “resorption of intraretinal strip hemorrhage” value (Case example 2, three-week therapy, measured by the starting size) was 10% and the “resorption of a small hemorrhage” value (Case example 3, patient, three-week therapy) was “low-grade beginning of resorption”. The leakages sealed (Case example 3, three-week therapy) was 1 leakages, the leakages sealed (Case example 4, 2 leakages before) was 1 leakages and the “resorption of the large subretinal hemorrhage” value (Case example 4, combination three weeks, measured by the starting size) was “approximately 5%”.
